Conditions: Liquid, Vibrating tube method

CCCCn1cc[n+](C)c1.CCCCn1cc[n+](C)c1.[Co+2].[N-]=C=S.[N-]=C=S.[N-]=C=S.[N-]=C=S [bis(1-butyl-3-methylimidazolium) tetrathiocyanatocobaltate]
mass density [kg/m3]
Conditions | 283.16 K | 293.13 K | 303.17 K | 313.17 K | 323.18 K | 333.15 K | 343.14 K | 353.13 K | 363.14 K
100 kPa | 1233.1 | 1226.4 | 1219.6 | 1212.6 | 1205.8 | 1199 | 1192.4 | 1185.8 | 1179.2
1000 kPa | 1233.5 | 1226.9 | 1220.1 | 1213.2 | 1206.3 | 1199.5 | 1192.9 | 1186.3 | 1179.8
2000 kPa | 1233.9 | 1227.4 | 1220.5 | 1213.6 | 1206.8 | 1200.1 | 1193.5 | 1186.9 | 1180.3
5000 kPa | 1235.3 | 1228.9 | 1222.1 | 1215.2 | 1208.3 | 1201.8 | 1195.1 | 1188.6 | 1182
7000 kPa | 1236.2 | 1229.7 | 1222.9 | 1216.2 | 1209.4 | 1202.7 | 1196.2 | 1189.6 | 1183.2
10000 kPa | 1237.6 | 1231.1 | 1224.3 | 1217.7 | 1210.8 | 1204.2 | 1197.7 | 1191.2 | 1184.8
15000 kPa | 1239.8 | 1233.5 | 1226.8 | 1220.1 | 1213.3 | 1206.7 | 1200.4 | 1193.8 | 1187.5
20000 kPa | 1241.9 | 1235.6 | 1229.1 | 1222.5 | 1215.8 | 1209.2 | 1202.8 | 1196.5 | 1190
25000 kPa | 1244 | 1237.6 | 1231.3 | 1224.8 | 1218.1 | 1211.6 | 1205.1 | 1198.9 | 1192.6
30000 kPa | 1245.9 | 1239.7 | 1233.5 | 1226.9 | 1220.5 | 1213.9 | 1207.5 | 1201.3 | 1195
35000 kPa | 1248 | 1241.8 | 1235.6 | 1229.1 | 1222.8 | 1216.2 | 1209.8 | 1203.6 | 1197.4
40000 kPa | 1250.1 | 1243.8 | 1237.7 | 1231.3 | 1224.9 | 1218.3 | 1212.2 | 1205.9 | 1199.9
45000 kPa | 1251.9 | 1245.9 | 1239.7 | 1233.3 | 1227 | 1220.5 | 1214.4 | 1208.1 | 1202.2
50000 kPa | 1253.9 | 1248 | 1241.7 | 1235.3 | 1229.1 | 1222.8 | 1216.4 | 1210.5 | 1204.5
55000 kPa | 1255.8 | 1250 | 1243.6 | 1237.4 | 1231.1 | 1224.9 | 1218.6 | 1212.8 | 1206.7
60000 kPa | 1257.6 | 1251.9 | 1245.6 | 1239.4 | 1233.2 | 1227 | 1220.7 | 1215.1 | 1208.9
65000 kPa | 1259.4 | 1253.8 | 1247.5 | 1241.3 | 1235.1 | 1229.1 | 1222.9 | 1216.9 | 1211.2
70000 kPa | 1261.3 | 1255.5 | 1249.4 | 1243.4 | 1237.2 | 1231 | 1225 | 1219 | 1213.2
75000 kPa | 1263.2 | 1257.4 | 1251.3 | 1245.2 | 1239.2 | 1233 | 1227 | 1221.1 | 1215.3
80000 kPa | 1264.9 | 1259.1 | 1253.1 | 1247 | 1241 | 1235.1 | 1229.1 | 1223.1 | 1217.3
85000 kPa | 1266.6 | 1261 | 1254.8 | 1248.9 | 1242.9 | 1236.9 | 1231 | 1225.2 | 1219.3
90000 kPa | 1268.4 | 1262.6 | 1256.7 | 1250.6 | 1244.8 | 1238.9 | 1232.8 | 1227.1 | 1221.4
95000 kPa | 1270.1 | 1264.4 | 1258.5 | 1252.5 | 1246.5 | 1240.7 | 1234.8 | 1229.1 | 1223.3

Source: the NIST ThermoML archive (doi:10.1021/acs.jced.9b00334)
